Patent EP4570805A1, “TRICYCLIC COMPOUNDS AND MEDICAL USE THEREOF” (Chia Tai Tianqing Pharmaceutical Group Co., Ltd., priority 2022, dated 2024)
Where two headings read alike, the source gives them in different places.

Assays:
[1] = system: Capan-1 cells; test: Inhibitory activity for Capan-1 cell proliferation (CCK-8); assay type: cell-based; conditions: Homo sapiens, CAPAN-1, 120 h, 5 days incubation
Experimental: Capan-1 cells in a well-growing state were collected into a centrifuge tube, adjusted to a cell density of 1.5 × 10^4 cells/mL, and inoculated onto a 96-well plate (100 µL/well). […] Meanwhile, a control was set. After 5 days of incubation in the cell incubator, the assay reagent CCK-8 (manufacturer: Dojindo Laboratories, Beijing; 10 µL/well) was added. After 4 h of incubation in the cell incubator, the absorbance was measured at 450 nm on a PerkinElmer Envision microplate reader. A four-parameter analysis was performed, a dose-response curve was fitted, and IC50 was calculated.

[2] = In vitro liver microsomal stability, mouse; conditions: mouse liver microsome 0.5 mg/mL, 37 °C
Experimental: (§1) Liver microsome incubation samples (species: human, monkey, rat, and mouse) were prepared by mixing a PBS buffer (pH 7.4), a liver microsome solution (0.5 mg/mL), a test compound, and an NADPH + MgCl2 solution and incubated at 37 °C and 300 rpm for 1 h. Zero-hour samples were prepared by mixing a PBS buffer (pH 7.4), a liver microsome solution (0.5 mg/mL), and a test compound. An acetonitrile solution containing an internal standard was added to the samples, and the supernatants were prepared by protein precipitation, diluted, and then assayed by LC/MS/MS.

[3] = system: AsPc-1 cells; test: Inhibitory activity for AsPc-1 cell proliferation (CCK-8); assay type: cell-based, human; conditions: Homo sapiens, ASPC1, 72 h incubation
Experimental: AsPc-1 cells in a well-growing state were collected into a centrifuge tube, adjusted to a cell density of 3 × 10^4 cells/mL, and inoculated onto a 96-well plate (100 µL/well). The compounds were added using a nanoliter pipettor such that the final concentrations of the compounds were 5000 nM-0.31 nM (the addition was performed in duplicate). Meanwhile, a control was set. After 72 h of incubation in the cell incubator, the assay reagent CCK-8 (manufacturer: Dojindo Laboratories; 10 µL/well) was added. After 3 h of incubation in the cell incubator, the absorbance was measured at 450 nm on a PerkinElmer Envision microplate reader. A four-parameter analysis was performed, a dose-response curve was fitted, and IC50 was calculated.

[4] = biological target: T1, His-KRAS G12D (1-169) (Homo sapiens, UniProt P01116, G12D); test: Nucleotide exchange assay (SOS1cat-mediated, HTRF); assay type: biochemical; conditions: room temperature, read-out: Nucleotide exchange inhibitory activity IC50
T1 construct: His-KRAS G12D (1-169)
T1 sequence (P01116 1-169 isoform P01116-2 G12D): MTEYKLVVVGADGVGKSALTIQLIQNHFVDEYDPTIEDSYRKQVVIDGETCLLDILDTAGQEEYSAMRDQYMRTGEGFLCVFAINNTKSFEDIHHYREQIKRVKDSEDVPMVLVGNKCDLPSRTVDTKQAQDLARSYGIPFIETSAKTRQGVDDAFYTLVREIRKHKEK
Experimental: • 1. Reagents: His-KRAS G12D (1-169); SOS1^cat (564-1049); GDP (purchased from Sigma); Anti-6HIS-Cryptate (purchased from Cisbio); EDA-GTP-DY-647P1 (purchased from Jena Bioscience) • 2. Buffer preparation: • 1) assay buffer: HEPES pH 7.4, NaCl, MgCl2, DTT, BSA, and Igepal; • 2) KRAS G12D working solution: A KRAS G12D working solution containing 100 nM His-KRAS G12D and 2 nM Anti-6HIS-Cryptate was prepared using the assay buffer; • 3) SOS1^cat working solution: An SOS1^cat working solution containing 20 nM SOS1^cat and 200 nM EDA-GTP-DY-647P1 was prepared using the assay buffer; • 4) blank control working solution: A blank control solution containing 2 nM Anti-6HIS-Cryptate was prepared using the assay buffer. • 3. Testing procedure: The entire experimental process was completed at room temperature. Using a black clear-bottom 384-well plate, 5 µL of KRAS G12D working solution was added to each well for the experimental and negative groups, while 5 µL of blank control working solution was added to each well for the blank group. The plate was incubated at room temperature for 10 min. Then, the compounds (at an initial concentration of 100 µM, 8 concentration gradients by 1:2 serial dilution) were added to the experimental groups using an ultra microsyringe and incubated at room temperature for 30 min. Finally, 5 µL of SOS1^cat working solution was added to each well, and after incubation at room temperature for 15 min, signal values were detected at 665 nm/620 nm using a PerkinElmer Envision HTS multi-label plate reader. The inhibition rate was calculated by the following formula: inhibition rate (%) = (mean value of negative control group - mean value of experimental group)/(mean value of negative control group - mean value of blank group) × 100%. The curves were fitted using the four-parameter logistic model with the logarithm of the compound concentration as the abscissa and the inhibition rate as the ordinate, and IC 50 values were calculated.

[5] = microsomes, 1 h
Experimental: as §1

[6] = In vitro liver microsomal stability, human; assay type: in vitro ADME; conditions: human liver microsome 0.5 mg/mL, 37 °C
Text: Table 2. Results for in vitro liver microsomal metabolic stability

[7] = In vivo pharmacokinetics in mice; conditions: mouse, in vivo, po, ICR mice, IG, 10 mg/kg; for MRT last: read-out: MRT(0-t)
Experimental: ICR mice weighing 20 g to 24 g were randomized into groups with 9 mice in each group after 3 to 5 days of acclimatization, and intragastric administration of the experimental compounds was performed at a dose of 10 mg/kg.
The test animals (ICR mice) were fasted for 12 h before administration and fed 4 h after administration, and were given free access to water before, after, and during the experiment.
After intragastric administration, about 0.1 mL of blood was collected via the orbital sinus at 0.25 h (15 min), 0.5 h (30 min), 1 h, 2 h, 4 h, 6 h, 8 h, and 10 h (each mouse was subjected to blood collection at 3 to 4 time points, with 3 mice per time point). Following anticoagulation with EDTA-K2, the blood samples were transferred to a centrifuge within 30 min and then centrifuged at 4000 rpm for 10 min at 4 °C to separate the plasma. All the plasma samples were collected and immediately stored at -20 °C for testing.
20 µL of the plasma sample to be tested and the standard curve sample were pipetted, and 400 µL of acetonitrile solution containing an internal standard (20 ng/mL) was added. The mixture was shaken and mixed well for 10 min, and centrifuged at 13000 rpm for 10 min. 50 µL of the supernatant was taken and diluted with 100 µL of ultrapure water. After being mixed well, 0.5 µL of the resulting sample was subjected to LC/MS/MS, and a chromatogram was recorded.
Oral exposure of the compounds of the present disclosure was evaluated by in vivo pharmacokinetic experiments in mice.

Row | SMILES | IC50 [4] [nM] | IC50 [1] [nM] | other results
1 | C#Cc1c(F)ccc2cc(O)cc(-c3nc4c5c(nc(OCCCN(C)C)nc5c3F)N(C(C)c3cccnc3N)[C@@H](C)CO4)c12 (single isomer, unassigned) [Example 79] |  | < 100 | The remaining amount % (T = 60 min) (0.5 mg/mL) Mouse liver microsome [2]: >60%
2 | C#Cc1c(F)ccc2cc(O)cc(-c3nc4c5c(nc(OCC67CCCN6CC(F)C7)nc5c3F)N(C(C)C)CCO4)c12 (stereo not shown) [Example 4] | ≤ 100 | 100 to 500 | IC50 [3]: 500 to 999 nM
3 | C#Cc1c(F)ccc2cc(O)cc(-c3nc4c5c(nc(OCC67CCCN6CC(F)C7)nc5c3F)N(C3CCC(N(C)C)C3)CCO4)c12 (stereo not shown) [Example 23] | 100 to 500 |  | 
4 | C#Cc1c(F)ccc2cc(O)cc(-c3nc4c5c(nc(OCC67CCCN6CC(F)C7)nc5c3F)N(C)CCO4)c12 (stereo not shown) [Example 9] | ≤ 100 |  | 
5 | C#Cc1c(F)ccc2cc(O)cc(-c3nc4c5c(nc(OC[C@H](C)N(C)C)nc5c3F)N(C(C)c3cccnc3N)[C@@H](C)CO4)c12 (single isomer, unassigned) [Example 111] |  | < 100 | The remaining amount % (T = 60 min) (0.5 mg/mL) Mouse liver microsome [5]: >60%
6 | C#Cc1c(F)ccc2cc(O)cc(-c3nc4c5c(nc(OC[C@@]67CCCN6C[C@H](F)C7)nc5c3F)N(C3CC(N(C)C)C3)CCO4)c12 (stereo partly shown) [Example 26] | 100 to 500 |  | 
7 | C#Cc1c(F)ccc2cc(O)cc(-c3nc4c5c(nc(OCC67CCCN6CC(F)C7)nc5c3F)N(C3CCC(O)C3)CCO4)c12 (stereo not shown) [Example 15] | ≤ 100 |  | 
8 | C#Cc1c(F)ccc2cc(O)cc(-c3nc4c5c(nc(OC[C@@]67CCCN6C[C@H](F)C7)nc5c3F)N(CC3CC3)CCO4)c12 [Example 6] | ≤ 100 |  | 
9 | C#Cc1c(F)ccc2cc(O)cc(-c3nc4c5c(nc(O[C@@H](C)[C@@H]6CCCN6C)nc5c3F)N(C(C)c3cccnc3N)[C@@H](C)CO4)c12 (single isomer, unassigned) [Example 107] |  | < 100 | The remaining amount % (T = 60 min) (0.5 mg/mL) Human liver microsome [6]: >40%
10 | C#Cc1c(F)ccc2cc(O)cc(-c3nc4c5c(nc(OCC67CCCN6CC(F)C7)nc5c3F)N(CC(C)N)CCO4)c12 (stereo not shown) [Example 14] | ≤ 100 |  | 
11 | C#Cc1c(F)ccc2cc(O)cc(-c3nc4c5c(nc(OC[C@@H]6CCN(C)C6)nc5c3F)N(C(C)c3cccnc3N)[C@@H](C)CO4)c12 (single isomer, unassigned) [Example 101] |  | < 100 | The remaining amount % (T = 60 min) (0.5 mg/mL) Mouse liver microsome [2]: >60%
12 | C#Cc1c(F)ccc2cc(O)cc(-c3nc4c5c(nc(OCC67CCCN6CC(F)C7)nc5c3F)N(C3CCC(N)C3)CCO4)c12 (stereo not shown) [Example 10] | 500 to 999 |  | 
13 | C#Cc1c(F)ccc2cc(O)cc(-c3nc4c5c(nc(OCCN(C)C)nc5c3F)N(C(C)c3cccnc3N)[C@@H](C)CO4)c12 (single isomer, unassigned) [Example 95] |  | < 100 | The remaining amount % (T = 60 min) (0.5 mg/mL) Mouse liver microsome [2]: >60%
14 | C#Cc1c(F)ccc2cc(O)cc(-c3nc4c5c(nc(OC[C@@]67CCCN6C[C@H](F)C7)nc5c3F)N(C3CCCC3)CCO4)c12 [Example 7] | ≤ 100 |  | 
15 | C#Cc1c(F)ccc2cc(O)cc(-c3nc4c5c(nc(OCCN6CCC6)nc5c3F)N(C(C)c3cccnc3N)[C@@H](C)CO4)c12 (single isomer, unassigned) [Example 134] |  | < 100 | The remaining amount % (T = 60 min) (0.5 mg/mL) Mouse liver microsome [5]: >60%
16 | C#Cc1c(F)ccc2cc(O)cc(-c3nc4c5c(nc(OC[C@@]67CCCN6C[C@H](F)C7)nc5c3F)NCCO4)c12 [Example 1] | ≤ 100 |  | 
17 | C#Cc1c(F)ccc2cc(O)cc(-c3nc4c5c(nc(OCC67CCCN6CCC7)nc5c3F)N(C(C)c3cccnc3N)[C@@H](C)CO4)c12 (single isomer, unassigned) [Example 97] |  | < 100 | The remaining amount % (T = 60 min) (0.5 mg/mL) Human liver microsome [6]: >40%; IC50 [3]: ≤ 100 nM
18 | Cc1c(F)cc2[nH]ncc2c1-c1nc2c3c(nc(OC[C@@]45CCCN4C[C@H](F)C5)nc3c1F)N(C(C)c1cccnc1N)[C@@H](C)CO2 (single isomer, unassigned) [Example 85] |  | < 100 | AUC(0-inf) [7]: 214 ng·h/mL; AUC(0-t) [7]: 197 ng·h/mL; Cmax [7]: 50.2 ng/mL; Tmax [7]: 0.25 h; half-life [7]: 2.77 h; MRT last [7]: 3.4 h
19 | C#Cc1c(F)ccc2cccc(-c3nc4c5c(nc(OC[C@@H]6CCCN6C)nc5c3F)N(C(C)c3cccnc3N)[C@@H](C)CO4)c12 (single isomer, unassigned) [Example 87] |  | < 100 | AUC(0-inf) [7]: 309 ng·h/mL; AUC(0-t) [7]: 266 ng·h/mL; Cmax [7]: 49 ng/mL; Tmax [7]: 0.25 h; half-life [7]: 3.66 h; MRT last [7]: 4.93 h
20 | C#Cc1c(F)ccc2cc(O)cc(-c3nc4c5c(nc(O[C@H]6CCN(C)C6)nc5c3F)N(C(C)c3cccnc3N)[C@@H](C)CO4)c12 (single isomer, unassigned) [Example 103] |  | < 100 | The remaining amount % (T = 60 min) (0.5 mg/mL) Mouse liver microsome [2]: >60%
21 | C#Cc1c(F)ccc2cc(O)cc(-c3nc4c5c(nc(OCCCN6CCNCC6)nc5c3F)N(C(C)c3cccnc3N)[C@@H](C)CO4)c12 (single isomer, unassigned) [Example 140] |  | < 100 | The remaining amount % (T = 60 min) (0.5 mg/mL) Mouse liver microsome [5]: >60%

Now from value to compound, other results behind:

Row | IC50 [4] [nM] | SMILES | IC50 [1] [nM] | other results
22 | ≤ 100 | C#Cc1c(F)ccc2cc(O)cc(-c3nc4c5c(nc(OCC67CCCN6CC(F)C7)nc5c3F)N(CC(C)N)CCO4)c12 (stereo not shown) [Example 13] |  | 
23 | ≤ 100 | C#Cc1c(F)ccc2cc(O)cc(-c3nc4c5c(nc(OC[C@@]67CCCN6C[C@H](F)C7)nc5c3F)N(C3CC(N)C3)CCO4)c12 (stereo partly shown) [Example 17] |  | 
24 | ≤ 100 | C#Cc1c(F)ccc2cc(O)cc(-c3nc4c5c(nc(OC[C@@]67CCCN6C[C@H](F)C7)nc5c3F)N(CC(F)(F)F)CCO4)c12 [Example 8] | 100 to 500 | IC50 [3]: 500 to 999 nM
25 | ≤ 100 | C#Cc1c(F)ccc2cc(O)cc(-c3nc4c5c(nc(OCC67CCCN6CC(F)C7)nc5c3F)N(CCN(C)C)CCO4)c12 (stereo not shown) [Example 2] |  | 
26 | ≤ 100 | C#Cc1c(F)ccc2cc(O)cc(-c3nc4c5c(nc(OCC67CCCN6CC(F)C7)nc5c3F)N(CC3(N(C)C)CC3)CCO4)c12 (stereo not shown) [Example 22] |  | 
27 | ≤ 100 | C#Cc1c(F)ccc2cc(O)cc(-c3nc4c5c(nc(OC[C@@]67CCCN6C[C@H](F)C7)nc5c3F)N(C[C@H](C)N(C)C)CCO4)c12 [Example 25] |  | 
28 | ≤ 100 | C#Cc1c(F)ccc2cc(O)cc(-c3nc4c5c(nc(OC[C@@]67CCCN6C[C@H](F)C7)nc5c3F)N([C@H]3C[C@@H]3N)CCO4)c12 [Example 16] |  | 
29 | ≤ 100 | C#Cc1c(F)ccc2cc(O)cc(-c3nc4c5c(nc(OC[C@@]67CCCN6C[C@H](F)C7)nc5c3F)N(C[C@@H](C)N(C)C)CCO4)c12 [Example 24] |  | 
